Assay results published in patent US12453735B2, “Treating cancer with a CCK receptor inhibitor and an immune checkpoint inhibitor” (GEORGETOWN UNIVERSITY, priority 2017, dated 2025).
“Also recorded” adds a separate entry of the source.

Tests used:
[1] = cited from earlier work
CCK-A receptor = molecular target: T1, CCK-A receptor (Homo sapiens, UniProt P32238); conditions: cited from earlier work
T1 sequence (P32238 1-428): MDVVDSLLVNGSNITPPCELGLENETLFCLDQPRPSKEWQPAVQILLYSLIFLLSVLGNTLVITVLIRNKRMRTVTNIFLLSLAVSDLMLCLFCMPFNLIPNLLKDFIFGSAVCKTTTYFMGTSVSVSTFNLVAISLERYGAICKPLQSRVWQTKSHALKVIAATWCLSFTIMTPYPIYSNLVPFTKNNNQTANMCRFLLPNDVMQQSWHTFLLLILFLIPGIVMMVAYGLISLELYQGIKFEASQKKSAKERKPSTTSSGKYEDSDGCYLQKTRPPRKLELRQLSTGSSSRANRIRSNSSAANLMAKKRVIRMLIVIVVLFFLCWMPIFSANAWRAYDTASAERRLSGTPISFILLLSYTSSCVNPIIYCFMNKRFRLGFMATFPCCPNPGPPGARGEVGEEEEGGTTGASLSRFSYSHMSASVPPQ

CCK-B receptor = molecular target: T2, CCK-B receptor (Homo sapiens, UniProt P32239); conditions: cited from earlier work
T2 sequence (P32239 1-447): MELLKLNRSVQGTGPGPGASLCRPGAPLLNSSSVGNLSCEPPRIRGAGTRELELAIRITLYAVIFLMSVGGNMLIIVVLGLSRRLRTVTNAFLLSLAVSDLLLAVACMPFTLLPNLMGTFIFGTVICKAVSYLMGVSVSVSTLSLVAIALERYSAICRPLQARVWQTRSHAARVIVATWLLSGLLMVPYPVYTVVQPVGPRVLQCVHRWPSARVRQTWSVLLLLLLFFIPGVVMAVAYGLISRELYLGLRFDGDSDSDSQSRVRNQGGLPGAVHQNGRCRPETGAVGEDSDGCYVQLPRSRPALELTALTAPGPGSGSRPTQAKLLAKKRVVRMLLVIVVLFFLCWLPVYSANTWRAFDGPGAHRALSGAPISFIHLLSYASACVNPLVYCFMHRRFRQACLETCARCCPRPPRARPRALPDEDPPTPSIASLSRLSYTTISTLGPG

Panc02 cells [2] = test: Orthotopic Panc02 pancreatic tumors in immune competent C57BL/6 mice; format: in vivo, mouse
Text: (§1) Animal Models—Three different murine models were used in this investigation: 1) severe combined immune deficiency (B6.CB17-Prkdc^scid/SzJ; SCID) mice to study the role of CCKR blockade on orthotopic cancer growth and metastasis independent of immune cells, 2) immune competent Pdx1-Cre/LSL-Kras^G12D transgenic mice for a pancreatic carcinogenesis model to study the role of CCKR blockade on the pancreatic stellate cells and immune cells of the pancreas, and 3) immune competent C57BL/6 mice to study the role of CCKR antagonist in combination with immune checkpoint antibodies on growth and survival of mice bearing syngeneic PDAC tumors. Institutional guidelines for care and use of laboratory animals were followed throughout the study in accordance with protocols approved by the Georgetown University Institutional Animal Use and Care Committee.
(§2) Four weeks after tumor inoculation mice were euthanized, tumors removed and weighed, and the number of metastases counted. TILs were evaluated in tumors of the C57BL/6 mice by immunohistochemistry and fibrosis assessed with Masson's trichrome stain.

Panc02 cells [3] = conditions: 2×10^6 Panc02 cells, vs PBS
Procedure: (§3) Cells were cultured in DMEM: F12 media with 10% FBS. […] In the following series of experiments Panc02 cells (1×10^6 or 2×10^6) were injected either orthotopically or subcutaneously in animals.
(§4) Subcutaneous tumor volumes were measured with calipers weekly in animals bearing subcutaneous tumors using the formula Length×(width)^2×0.5.
(§5) Treatments—Two different CCK receptor antagonists were used in this investigation. […] The other CCK receptor antagonist used was proglumide which is an orally bioavailable nonselective antagonist that blocks both the CCK-A and CCK-B receptors. Proglumide (Tocris Bioscience) was administered in the drinking water at a concentration of 0.1 mg/mL, or approximately 30 mg/kg/d per mouse.
Two immune checkpoint blockade antibodies were used in this investigation. […] The antibody to cytotoxic T-lymphocyte-associated antigen 4 (CTLA-4 Ab; Bio-X cell, West Lebanon, NH) was given at a dose of 200 μg every 3 days by intraperitoneal injections.
Another series of experiments was performed in C57BL/6 mice to evaluate the role of CCKR blockade in combination with immune checkpoint antibody therapy. Each series of experiments was performed using 40 mice with syngeneic murine tumors. […]
Comparisons were made by ANOVA and student's t-test. […] Survival was analyzed by Kaplan Meier analysis and differences by hazard ratios using Prism Software (GraphPad software, Inc., San Diego, CA). […]

[4] = system: pancreas of Pdx1-Cre/LSL-Kras^G12D transgenic mouse; test: Pancreatic carcinogenesis model, Pdx1-Cre/LSL-Kras^G12D transgenic mice; format: in vivo; conditions: proglumide in drinking water for 4 months
Text: as §1
The second series of experiments was performed to analyze the role of CCKR antagonist monotherapy on the TILs of the pancreas microenvironment during pancreatic carcinogenesis using the Pdx1-Cre/LSL-Kras^G12D transgenic mouse. After the mice reached 3-4 months of age, when PanINs and fibrosis are established, mice were treated with either proglumide (in the drinking water) or untreated water. After 4 months of therapy, the pancreata were excised and compared to the pancreas of age-matched litter mates of mice on untreated water. […]

Panc02 cells [5] = test: Orthotopic Panc02 pancreatic tumors in SCID mice; format: in vivo, mouse
Text: as §1, §2

Panc02 cells [6] = test: Survival and tumor immune cells of C57BL/6 mice bearing subcutaneous Panc02 tumors, CCKR antagonist and CTLA-4 antibody
Procedure: as §3, §5
(§6) Two immune checkpoint blockade antibodies were used in this investigation. The antibody to the programmed cell death protein 1 (PD1-Ab) (Bio X cell, West Lebanon, NH) was administered intraperitoneally to mice at a dose of either 125 μg×3 injections or 200 μg every 3 days.
(§7) Another series of experiments was performed in C57BL/6 mice to evaluate the role of CCKR blockade in combination with immune checkpoint antibody therapy. Each series of experiments was performed using 40 mice with syngeneic murine tumors. […] The primary end point was tumor volume (1,000 mm^3) or mouse survival. Tumors were excised and examined histologically, and by immunohistochemistry, or by flow cytometry for immune cells.
(§8) Tumor sections were also stained with either CD3 antibodies (1:85; DAKO, Carpinteria, CA); CD8 antibodies (1:75; eBioscience, San Diego, CA); CD4 antibodies (1:225; eBioscience), or FoxP3 antibody (1:30; eBioscience) and immunoreactive cells counted manually.

pancreatic primary tumor = conditions: immune competent mouse, 4 mg/kg three times weekly ip; cited from earlier work
pancreatic cancer tumor = conditions: immune deficient nude mouse, 2 mg/kg twice daily; cited from earlier work
Panc02 cells [7] = test: Subcutaneous Panc02 tumors in C57BL/6 mice, CCKR antagonist and PD-1 antibody; format: in vivo, mouse; conditions: vs PBS; for tumor size / tumor volume: Panc02 in C57BL/6, L364,718 4 mg/kg tiw ip, PD-1 antibody 125 μg×3 injections
Procedure: as §3, §5, §6, §7, §8

[8] = Panc02 tumors, immunohistochemistry

Procedure for mT3 cells: The cell line is also syngeneic to C57BL/6 mice; and therefore, capable of being studied in immune competent mice.
as §4
Proglumide (Tocris Bioscience) was administered in the drinking water at a concentration of 0.1 mg/mL, or approximately 30 mg/kg/d per mouse.
The antibody to the programmed cell death protein 1 (PD1-Ab) (Bio X cell, West Lebanon, NH) was administered intraperitoneally to mice at a dose of either 125 μg×3 injections or 200 μg every 3 days.
In the 4th experiment, the mT3 cells (1×10^5) were injected and mice were treated with PBS, proglumide, the PD-1 antibody, or the combination of both compounds. […] The primary end point was tumor volume (1,000 mm^3) or mouse survival. Tumors were excised and examined histologically, and by immunohistochemistry, or by flow cytometry for immune cells.
Some tumors were stained with an antibody to α-SMA (Abeam; Ab124964 at 1:6000). Tumor sections were also stained with either CD3 antibodies (1:85; DAKO, Carpinteria, CA); CD8 antibodies (1:75; eBioscience, San Diego, CA); CD4 antibodies (1:225; eBioscience), or FoxP3 antibody (1:30; eBioscience) and immunoreactive cells counted manually.

## CCCN(CCC)C(=O)C(CCC(=O)O)NC(=O)c1ccccc1 (stereo not shown) [proglumide]
[1]
  water solubility: water soluble
mT3 cells; mT3 pancreatic cancers, average
  survived longer than PBS control mice: 12 days
mT3 cells; mT3 tumors, vs PBS
  number of Foxp3+ cells (Tregs): decreased
  tumor-associated fibrosis by Masson's trichrome stain: noticeably less
  α-SMA immunoreactivity (activated fibroblasts): somewhat decreased with proglumide, but this change was not statistically significant
mT3 cells; mT3 tumors, vs PBS controls and PD-1 monotherapy, p<0.01
  quantitative analysis of intratumoral fibrosis: significantly less fibrosis
mT3 cells; proglumide 0.1 mg/mL drinking water, PD-1 antibody 200 μg every three days, vs PBS
  growth of mT3 tumors / tumor size: significantly slowed tumor growth; also recorded: significantly slower
CCK-A receptor
  antagonism at the CCK-A receptor: weaker nonselective CCK antagonist
CCK-B receptor
  antagonism at the CCK-B receptor: inhibitory properties at both the CCK-A and CCK-B receptor types
Panc02 cells [2]; orthotopic Panc02 tumors, vs PBS/vehicle
  fibrosis of tumor microenvironment (Masson's trichrome stain): marked decreased fibrosis
Panc02 cells [3]
  prolonged life: 5 days
[4]; vs age-matched controls
  fibrosis of the pancreas microenvironment (trichrome stain): significantly diminished fibrosis; also recorded: significantly reversed fibrosis
[4]; vs untreated water
  CD3+ cells in mouse pancreas: significant increase in the CD3+ cells

## CN1C(=O)[C@@H](NC(=O)c2cc3ccccc3[nH]2)N=C(c2ccccc2)c2ccccc21 [L364,718, Devazepide]
Panc02 cells [5]; orthotopic 10^6 Panc02 cells, 4 mg/kg three times a week ip, four weeks, vs PBS
  primary tumor weight: significantly reduced the primary tumor weight
Panc02 cells [5]; orthotopic Panc02, 4 mg/kg three times a week ip, 75% of untreated SCID mice had metastases
  metastases: no metastases
Panc02 cells [6]; [8]
  average CD4+ cell numbers in tumor: increased
  average CD8+ cell numbers in tumor: increased
Panc02 cells [6]; subcutaneous Panc02, C57BL/6, all PBS controls had died by day 50
  mice still alive at day 50: 42%
Pancreatic primary tumor
  inhibition of pancreatic primary tumor growth: insufficient dose, by itself, to inhibit pancreatic primary tumor growth
  number of metastases: did decrease the number of metastases
Panc02 cells [2]; C57BL/6 mice, orthotopic Panc02, 4 mg/kg three times a week ip
  metastases: decreased metastases
Panc02 cells [2]; C57BL/6 mice, orthotopic Panc02, 4 mg/kg three times a week ip, vs PBS
  primary tumor size: did not alter the primary tumor size
Panc02 cells [2]; orthotopic Panc02 tumors, C57BL/6 mice, vs PBS
  CD3+ lymphocytes in tumor by immunohistochemistry: significant increase in CD3+ lymphocytes
Pancreatic cancer tumor
  pancreatic cancer tumor size: significant reduction in pancreatic cancer tumor size
Panc02 cells [7]
  tumor size / tumor volume: did not significantly decrease the tumor size
Panc02 cells [7]; listed as L-364,718
  tumor size / tumor volume: not significantly smaller
Panc02 cells [7]; Panc02 tumors
  CD4+ cells in tumor (immunohistochemistry): increased
  CD8+ cells in tumor (immunohistochemistry): increased
